Data on 20 compounds can be found in ChEMBL document CHEMBL4411258, “Novel natural compounds from endophytic fungi with anticancer activity” (Eur J Med Chem, 2018).

Values after ≈ are worked out from the molar mass of the structure shown. Bounds are passed on as bounds.

The subject of assay [1] is A549. In words: Cytotoxicity against human A549 cells after 72 hrs by MTT assay. In kind it is functional, cell-based. The conditions noted are these: A549, 72 h. (In general: Formazan colour is commonly taken as a measure of viable cells.)
In another assay the test system is Raji. The experiment in a line: Cytotoxicity against human Raji cells after 72 hrs by MTT assay. In kind it is functional, cell-based.
The test system of assay [2] is HepG2. The experiment in a line: Cytotoxicity against human HepG2 cells after 72 hrs by MTT assay. The settings on record: HepG2, 72 h. In kind it is functional, cell-based.
In assay [3] the test system is MCF7. In words: Cytotoxicity against human MCF7 cells after 72 hrs by MTT assay. The class given is functional, cell-based. The conditions noted are these: MCF7, 72 h.
For assay [4], the system named is HL-60. In words: Cytotoxicity against human HL60 cells after 72 hrs by MTT assay. In kind it is functional, cell-based. The conditions noted are these: HL-60, 72 h.
Assay [5] concerns HepG2. In words: Cytotoxicity against human HepG2 cells after 24 hrs by MTT assay. In kind it is functional, cell-based. The conditions noted are these: HepG2, 24 h.
Assay [6] concerns HL-60. In words: Cytotoxicity against human HL60 cells by MTT assay. In kind it is functional, cell-based.
Assay [7] relates to HL-60. The experiment in a line: Cytotoxicity against human HL60 cells by trypan blue staining based assay. In kind it is functional, cell-based.
Assay [8] relates to A549. In words: Cytotoxicity against human A549 cells by MTS assay. In kind it is functional, cell-based.
In another assay the test system is NCI-H446. The experiment in a line: Cytotoxicity against human NCI-H446 cells by MTS assay. The class given is functional, cell-based.
Another assay deals with HeLa. In words: Cytotoxicity against human HeLa cells by MTS assay. The class given is functional, cell-based.
The next assay deals with Huh-7. In words: Cytotoxicity against human HuH7 cells by MTS assay. In kind it is functional, cell-based.
Another assay relates to L02. The experiment in a line: Cytotoxicity against human L02 cells by MTS assay. The class given is cell-based.
A short description of assay [9]: Cytotoxicity against mouse LM3 cells by MTS assay. The class given is functional, cell-based.
For assay [10], the system named is MCF7. The experiment in a line: Cytotoxicity against human MCF7 cells by MTS assay. In kind it is functional, cell-based.
For another assay, the system named is SW1990. In words: Cytotoxicity against human SW1990 cells by MTS assay. In kind it is functional, cell-based.
In the next assay the test system is SF-268. In words: Cytotoxicity against human SF268 cells after 48 hrs by sulforhodamine B assay. In kind it is functional, cell-based. The conditions noted are these: Homo sapiens, SF-268, 48 h. In general terms: In SRB staining, fixed cells bind dye roughly in proportion to their protein.
The subject of assay [11] is MCF7. The experiment in a line: Cytotoxicity against human MCF7 cells after 48 hrs by sulforhodamine B assay. In kind it is functional, cell-based. The settings on record: Homo sapiens, MCF7, 48 h.
The next assay relates to NCI-H460. In words: Cytotoxicity against human NCI-H460 cells after 48 hrs by sulforhodamine B assay. The conditions noted are these: Homo sapiens, NCI-H460, 48 h. In kind it is functional, cell-based.
Assay [12] has as its system HepG2. The experiment in a line: Cytotoxicity against human HepG2 cells after 48 hrs by sulforhodamine B assay. The class given is functional, cell-based. The conditions noted are these: Homo sapiens, HepG2, 48 h.
Assay [13] is described as follows: Inhibition of RANKL-induced NFkappaB (unknown origin) activation expressed in mouse RAW264.7 cells preincubated for 1 hr followed by RANKL stimulation and measured after 6 hrs by luciferase reporter gene based assay. The class given is cell-based. For orientation: In a reporter assay the amount or activity of a reporter protein is the signal.
In a further assay the test system is MOLT-3. The experiment in a line: Cytotoxicity against human MOLT3 cells by XTT assay. In kind it is functional, cell-based.
The subject of the next assay is MDA-MB-435. The experiment in a line: Cytotoxicity against human MDA-MB-435 cells by MTT assay. In kind it is functional, cell-based.
In a further assay the test system is SGC-7901. The experiment in a line: Cytotoxicity against human SGC7901 cells by MTT assay. In kind it is functional, cell-based.
Assay [14] relates to A549. In words: Cytotoxicity against human A549 cells by MTT assay. In kind it is functional, cell-based.
The test system of a further assay is NCI-H187. In words: Cytotoxicity against human NCI-H187 cells by resazurin microplate assay. In kind it is functional, cell-based.
A further assay has as its system Vero. The experiment in a line: Cytotoxicity against African green monkey Vero cells by resazurin microplate assay. The settings on record: Chlorocebus sabaeus. In kind it is cell-based.

By IC50 is commonly meant the concentration needed to halve the response being measured. As to `COc1cc(=O)oc(CO)c1[C@H](C)O`, the IC50 with A549 [1], with Raji, in the assay with HepG2 [2], in the assay on MCF7 [3] and with HL-60 [4] was 1 to 26.8 µg/mL (≈ 5 to 134 µM) throughout.
For the compound `COc1ccc2c3c([nH]c2c1)C(C=C(C)C)N1C(=O)C2CCCN2C(=O)C1(OC)C3OC(=O)c1cc(O)cc(OC)c1C(=O)c1c(O)cc(C)cc1OC` (configuration not stated), it took 47.5 µM to reach half-maximal inhibition in the assay on HepG2 [5] (IC50).
For the compound `COC1=C2c3cc(OC)cc(O)c3C(=O)O[C@]2(C)CC1=O`, the IC50 in the assay on HL-60 [6] is 75.3 µM.
Take `CC(C)=CCCC(C)(O)[C@H]1CC[C@@]2(C)OC3=C(C[C@@H]12)C(=O)[C@@H](O)CC3` (some centres not stated): the IC50 in the assay on HL-60 [7] was found to be 32.5 µM.
In the case of `CO[C@@H]1CCC(=O)c2c([C@@H]3CCC(=O)c4c(O)cccc43)ccc(O)c21`, the IC50 (in the assay on A549 [8]; in the assay on NCI-H446; with HeLa; in the assay on Huh-7; in the assay on L02; in assay [9]) was 1 to 20 µM throughout. Also, the IC50 in the assay with MCF7 [10] and in the assay on SW1990 was 1 to 20 µM throughout.
In the assay on HepG2 [5], `CC(=O)OC(CC=C(C)C)C[C@@]1(C)CCC[C@H]2[C@@]3(C)C=CC(=O)[C@@H](C)[C@@H]3[C@H](OC(C)=O)C(=O)[C@@]21C` (some centres not stated) registered an IC50 of 140 µM.
With `CC[C@H](C)c1[nH]c2c(c1C)C(=O)C1=C(C2=O)[C@@H](O)[C@@H]2[C@@]3(C)CC[C@H](C(C)(C)O)O[C@@H]3CC[C@@]2(C)O1`, the IC50 in the assay with SF-268, in the assay on MCF7 [11], in the assay on NCI-H460 and with HepG2 [12] was 6.4 to 42.6 µM each time.
On to `COC1=C2c3cc(OC)cc(O)c3C(=O)O[C@@]2(C)CC1=O`, for which the IC50 in the assay with HL-60 [6] was > 200 µM.
For the compound `O=C1C[C@@H](O)[C@]2(Oc3cccc4c(O)ccc(c34)O2)c2c(O)ccc(O)c21`, the IC50 in the assay with HL-60 [7] was 2.39 µM.
Consider `COc1cc(=O)oc(CO)c1[C@H](O)CO`, for which the IC50 in the assay with A549 [1], with Raji, with HepG2 [2], in the assay on MCF7 [3] and in the assay on HL-60 [4] was 1 to 26.8 µg/mL (≈ 4.63 to 124 µM) in each case.
Take `COC(=O)c1cc(OC)c(O)c2oc3c(c(=O)c12)[C@H](OC)O[C@@H](C)C3`: the IC50 in [13] lay in the range of 30 to 46 µM.
`C/C(=C\C=C\[C@H](O)[C@@H](C)O)[C@H](O)[C@H](C)C(=O)O[C@H]1C[C@H](C)C[C@@H]2C=C[C@H](C)[C@](C)(C(=O)CCO)[C@@H]12`: the IC50 in the assay with MOLT-3 came to 37.3 µg/mL (≈ 75.7 µM).
For `CCC(=O)Cc1c(OC)cc(=O)oc1CO`, the IC50 with A549 [1], in the assay with Raji, in the assay with HepG2 [2], in the assay with MCF7 [3] and in the assay with HL-60 [4] was 1 to 26.8 µg/mL (≈ 4.42 to 118 µM) each time.
For the compound `CC1=C[C@@H]2/C=C/C[C@H](C)/C=C(\C)[C@@H](O)C(=O)/C=C/C(=O)[C@]23C(=O)N[C@H]2Cc4c([nH]c5ccccc45)[C@@]1(C)[C@@H]23`, the results for the IC50 in the assay with MDA-MB-435, in the assay with SGC-7901 and with A549 [14] were 7.55 µM, 7.32 µM and 16.1 µM, respectively.
`C/C=C/C(O)[C@@H]1OC(=O)[C@@]2(C)[C@@H]3CC[C@@H](C)C[C@H]3C=C[C@@H]12` (some centres not stated): the IC50 was found to be 30.5 µg/mL (≈ 105 µM) in the assay with NCI-H187 and 24.2 µg/mL (≈ 83.5 µM) in the assay with Vero.
With `C/C=C(\C)C(=O)[C@@H](C)c1cc(O)c2c(c1O)O[C@]1(C)CC[C@H]3O[C@@H](C(C)(C)O)CC[C@]3(C)[C@H]1C2=O`, the IC50 with SF-268, in the assay with MCF7 [11], in the assay with NCI-H460 and with HepG2 [12] was 6.4 to 42.6 µM each time.
In turn, `O=C1CC[C@]2(C[C@@H](O)C(=O)O2)c2cccc(O)c21` came in with an IC50 in the assay on HL-60 [7] of 29.1 µM.
Turning to `C=C(CO)C(=O)CCC(C)C1=CC[C@@]2(C)OC3=C(C[C@@H]12)C(=O)[C@@H](O)CC3` (some centres not stated), the half-maximal inhibitory concentration (IC50) in the assay with HL-60 [7] was 4.81 µM.
As for `O=C1CC[C@@H](c2ccc(O)c3c2C(=O)CCC3=O)c2cccc(O)c21`, the IC50 (in the assay on A549 [8]; in the assay on NCI-H446; in the assay on HeLa; in the assay on Huh-7; in the assay on L02; in assay [9]) was 1 to 20 µM in each case. Besides, the IC50 in the assay with MCF7 [10] and in the assay with SW1990 was 1 to 20 µM throughout.
Take `O=C1CC[C@@H](c2ccc(O)c3c2[C@@H](O)CCC3=O)c2cccc(O)c21`: the IC50 (in the assay with A549 [8]; in the assay on NCI-H446; with HeLa; in the assay on Huh-7; in the assay on L02; in [9]) was 1 to 20 µM throughout. The IC50 in the assay with MCF7 [10] and in the assay on SW1990 was 1 to 20 µM throughout.
